From patent US7129078B2, “DNA encoding androgen receptor fragment” (University of North Carolina at Chapel Hill, priority 1988, dated 2006)

Target: T1, steroid-binding domain of hAR (human androgen receptor) expressed from cDNA fragment (Homo sapiens, UniProt P10275)
T1 sequence (P10275 669-900 limits assumed): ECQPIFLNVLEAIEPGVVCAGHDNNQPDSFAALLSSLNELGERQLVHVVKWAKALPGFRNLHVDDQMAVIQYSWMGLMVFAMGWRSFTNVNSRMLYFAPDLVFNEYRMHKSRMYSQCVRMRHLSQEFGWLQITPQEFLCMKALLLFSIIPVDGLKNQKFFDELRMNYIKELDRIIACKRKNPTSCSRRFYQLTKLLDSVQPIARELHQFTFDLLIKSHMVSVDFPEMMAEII
Conditions: unlabeled steroid at 10- and 100-fold excess over 5 nM [3H]dihydrotestosterone

- steroid specificity (relative affinity): low affinity
SMILES: C[C@]12CCC(=O)C=C1CC[C@@H]1[C@@H]2[C@@H](O)C[C@@]2(C)[C@H]1CC[C@]2(O)C(=O)CO [cortisol]
